According to patent US20030165919A1, “Method for the analysis of exogenic and endogenic cell activiation based on measuring the aggregation of receptors” (priority 2000, published 2003):

Experiments:
CD11b and CD14 = target: T1, CD11b and CD14 (Homo sapiens, UniProt P08571); experiment: FRET flow cytometry: co-assembly of CD11b and CD14 on monocytes; format: cell-based; conditions: for co-assembly of CD11b and CD14 (energy transfer between monoclonal antibodies): human monocytes in whole blood, stimulation with the substance alone, 37° C. 15 minutes
T1 construct: endogenous in cells; host or cells: human monocytes in heparinised whole blood (healthy donors and patients)
T1 sequence (P08571 20-345 limits assumed): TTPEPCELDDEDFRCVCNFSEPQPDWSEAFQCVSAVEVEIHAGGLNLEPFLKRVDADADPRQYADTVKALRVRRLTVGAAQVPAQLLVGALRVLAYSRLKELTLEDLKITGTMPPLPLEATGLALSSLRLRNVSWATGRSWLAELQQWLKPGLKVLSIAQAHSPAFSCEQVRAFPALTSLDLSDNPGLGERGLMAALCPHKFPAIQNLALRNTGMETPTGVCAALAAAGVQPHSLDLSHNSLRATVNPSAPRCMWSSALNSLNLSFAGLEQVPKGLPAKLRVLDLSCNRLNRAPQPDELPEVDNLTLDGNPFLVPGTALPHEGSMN
Description: (§1) Aliquots […] of whole blood were incubated with the following stimulatory compounds at 37° C. for 15 minutes: LPS of Salmonella minnesota (0.1-10 nM, Mw 10 kDa), ceramide (primarily stearic acid and nervonic acid) and sulfogalactosyl ceramide (SG-cer, […]), both of which tested LPS free in the LAL assay (Cer, 1 nM-5.5 mM), lysophosphatidyl choline (lyso-PC, 10 mM), phorbol-12-myristate-13-acetate (PMA, 1 mM), N-formyl-L-methionyl-L-leucyl-L-phenyl alamine (fMLP, 1 mM), PE, PC, PI and PS liposomes (10 mm) which had been prepared as described above. All reagents were obtained from Sigma. In addition, the cells were stimulated with HPS70 (7 nM), dHSP70 (7 nM) and SG-cer+dHSP70 (40 nM+7 nM). After incubation, the cells were washed with cold PBS containing 0.1% of NaN3. The synthetic LPS antagonist lipid IVa (“compound-406”, 1-400 ng/ml) and lipid A derived from E. coli (1-100 ng/ml) were made available by courtesy of Dr. S. Kusumoto. The cells were pre-incubated with the LPS antagonist at 37° C. for 15 minutes and then stimulated with LPS at the same temperature (without washing).
Whole blood cells which had been stimulated or washed ex vivo […] were incubated on ice for 15 minutes with saturation concentrations of monoclonal fluorochrom-conjugated or biotinylated antibodies. The monoclonal antibodies CD11a (clone 25.3.1), CD16a (clone 3G8). CD18 (clone 7E4), CD14 (clone RMO52), CD33 (clone My9-RD1). CD81 (clone Js64) were obtained as R-phyco-erythrine (R-PE) conjugates and CD25 (clone B1.49.9) in biotinylated form from Coulter/Immunotech (Krefeld, Germany). CD11b (clone d12), CD11c (clone S-HCL-3), CD36 (clone CB38), CD47 (clone B6H12), CD81 (clone JS-81) and (Cd55 (clone IA10) in biotinylated form and Streptavidin-R-PE were purchased from Becton/Dickinson/Pharningen (Heidelberg, Germany) CD18 (clone IB4) in biontinylated form and CD40 (clone EA-5) as R-PE conjugate were obtained from Alexis (Grünberg, Germany) and CD14 (clones ×8 and Uchml) and CD3 (clone Cris-7) in biotinylated form and Streptavidin-Cy5 (Sa-Cy5) from Dianova (Hamburg, Germany), CD32 (clone C1KM5) and CD64 (clone 10.1) were obtained as R-PE conjugates from Caltag (Burlingame, U.S.A.) and CD91 (clone 8G1) in biotinylated form from Proen (Heidelberg, Germany). A monoclonal anti-TLRA antibody (clone HTA125) was kindly provided by Dr. Kensuke. Since no energy transfer between the antibodies directed against the CD14/CD11a and CD14/CD11c pairs was detectable either on resting or on stimulated cells, these antibody combinations were not characterised further.
Lysis of erythrocytes and washing were carried out as described (Rothe et al., Thromb. Vasc. Biol. 16 (1996), 1437-1447). After the last washing step, the samples were divided and part of each sample incubated with a saturating amount of SA-Cy5 on ice for 15 minutes and washed before measuring.
For energy transfer experiments, […] aliquots of whole blood were treated with cholesterol/methyl cyclodextrine (C/C) (100 mg/ml/4.6 mg/ml) or 2-hydroxypropyl-β-cyclodextrine (0.15 mg/ml) at 37° C. for 30 minutes and then stimulated further with LPS (4 nM) or ceramide (40 nM) as described above. The energy transfer between CD14 and CD11b was measured.
A “FACSCalibur” flow cytometer (Becton Dickinson) equipped with an air-cooled 15 mW argon laser (excitation wavelength 488 nm), a diode laser (excitation wavelength […]) and standard filters [channel 1 (FITC): 530/30 nm band pass filter; channel 2 (R-PE being used as donor dye); 585/47 nm band pass filter; channel 3 (PerCP): pass having a length of >670 nm; and channel 4 (Cy5being used as recipient dye): 661/16 nm bad pass filter] was used. The Cellquest software (Becton Dickinson) was used for the measurements. […] Measurement was conducted without compensation. 50,000 leukocytes were required in the “list” modus, forward scattering (FSC) being used as a trigger signal. […]

human CD14 = target: T2, human CD14 (Homo sapiens, UniProt P08571); experiment: Binding of [14C]N-palmitoyl-D-sphingosine to CHO cells transfected with human CD14
T2 construct: expressed in transfected cells; host or cells: CHO cells (control: pPol-DHFR vector)
T2 sequence (P08571 20-345): T1 sequence (P08571 20-345 limits assumed)
Description: d. CHO cells transfected with human CD14 (-unlabelled ceramide)(●)+unlabelled ceramide (∘)) or with a pPol-DHFR vector (-unlabelled ceramide (▪)+unlabelled ceramide (□)) were incubated with the specified concentrations of [^14C]N-palmitoyl-D-sphingosine and the ^14C bound to the cells determined. Each data point represents the mean value ± SD of three measurements.
Cells transfected with human CD14 or the pPol-DHFR vector were grown as described recently (Stelter et al., Eur. J. Biochem. 238 (1996), 457-464). The cells were trypsinated, washed twice with PBS and then taken up in PBS containing 10% of human serum. CHO cells (4×10^5) were pre-incubated on ice in the presence of a 50 fold excess of unlabelled N-palmitoyl-D-sphingosine (Sigma) for 15 minutes in a final volume of […]. After that [^14C]N-palmitoyl-D-sphingosine (American Radiolabeled Chemicals Inc., St. Louis, Mo., U.S.A.) was added and the cells incubated for another 15 minutes. In order to remove non-bound activity, the cells were washed twice and then transferred to a fresh Eppendorf vessel. After repeated washing, the pellet was dissolved in […] of 1% SDS, 10 mM EDTA and then added to 3 ml of scintillation liquid. The amount of cell-bound radioactivity was determined by measuring the scintillation of the liquid.

[1] = target: T3, receptor cluster comprising CD14 (Homo sapiens, UniProt P08571); experiment: FRET with a series of antibody pairs: receptor cluster comprising CD14 on monocytes; format: cell-based; conditions: stimulation of the cells as control
T3 construct: endogenous in cells; host or cells: human monocytes in whole blood
T3 sequence (P08571 20-345 limits assumed): T1 sequence (P08571 20-345 limits assumed)
Description: as §1
Whole blood cells which had been stimulated or washed ex vivo […] were incubated on ice for 15 minutes with saturation concentrations of monoclonal fluorochrom-conjugated or biotinylated antibodies. The monoclonal antibodies CD11a (clone 25.3.1), CD16a (clone 3G8). […]

Molecule | co-assembly of CD11b and CD14 (energy transfer between monoclonal antibodies) (CD11b and CD14) | further results
phosphatidyl serine [PS] | Only lipoteichoic acid, PE and PI induced co-assembly | –
CCCCCCCCCCCCC/C=C/[C@@H](O)[C@H](CO)N[14C](=O)CCCCCCCCCCCCCCC [[^14C]-N-palnitoyl-D-sphingosine, [^14C]N-palmitoyl-D-sphingosine] | – | inhibition of binding by 50-fold excess of unlabelled ligand (human CD14; CD14-transfected CHO fibroblasts): could be inhibited by adding a 50-fold excess of unlabelled ligand; binding to CD14-transfected CHO fibroblasts compared to vector-transfected cells (human CD14; cell-bound 14C, PBS with 10% human serum, on ice 15 minutes): much higher when compared to vector-transfected cells
CCCCCCCCCCCCCC(=O)O[C@@H]1[C@@H](C)[C@@]2(O)[C@@H](C=C(CO)C[C@]3(O)C(=O)C(C)=C[C@@H]23)[C@@H]2C(C)(C)[C@]12OC(C)=O [PMA, phorbol-12-myristate-13-acetate] | neither fMLP or PMA showed any effect | energy transfer between any of the antibody pairs [1]: did not result in any significant energy transfer
phosphatidyl ethanol amine [PE] | induced co-assembly between CD11b and CD14 | –
CCCCCCCCCCC[C@@H](O)CC(=O)N[C@H]1[C@H](OC[C@H]2O[C@H](OP(=O)(O)O)[C@H](NC(=O)C[C@H](O)CCCCCCCCCCC)[C@@H](OC(=O)C[C@H](O)CCCCCCCCCCC)[C@@H]2O)O[C@H](CO)[C@@H](OP(=O)(O)O)[C@@H]1OC(=O)C[C@H](O)CCCCCCCCCCC [compound-406] | did not induce co-assembly of the receptors CD14 and CD11b | effect on LPS-induced co-association between CD14 and CD11b (CD11b and CD14; antagonist given in vitro 15 minutes before stimulation, LPS 4 nM + c-406 400 ng/ml): reduced the LPS- or ceramide-induced co-association between CD14 and CD11b significantly; effect on ceramide-induced co-association between CD14 and CD11b (CD11b and CD14; antagonist given in vitro 15 minutes before stimulation, ceramide 10 nM + c-406 100 ng/ml): reduced the LPS- or ceramide-induced co-association between CD14 and CD11b significantly
lyso-phosphatidyl choline [lysoPC] | Only lipoteichoic acid, PE and PI induced co-assembly | –
